Measurements taken from patent US20230293490A1, “PROFILIN1:ACTIN INHIBITOR AS AN ANTI-ANGIOGENIC COMPOUND” (University of Pittsburgh- Of the Commonwealth System of …, priority 2020, published 2023).

Assays:
RVN cells [1] = assay: Serum-induced chemotactic (transwell) migration of RVN cells; assay type: cell-based, murine; conditions: dose-dependent
Experimental: (§1) Cell culture, transfection and viral transduction: Murine VHL-deleted variant of RENCA (referred to as RVN cells) cells were cultured in DMEM with 10% (v/v) FBS and 1% (v/v) antibiotics. Human VHL-negative 786-0 cells (source: ATCC) were cultured in RPMI-1640 media supplemented with 10% (v/v) FBS and antibiotics. HmVEC-1, a widely used immortalized human dermal microvascular EC line (ATCC; CRL-3243—referred to as VEC), were cultured in MCDB-131 (Life Technologies; Carlsbad, CA) growth medium supplemented with 10% (v/v) FBS, 1% (v/v) antibiotics, 10 ng/mL EGF, 1 μg/mL Hydrocortisone and 10 mM L-Glutamine. For adenovirus infection, cells were plated, allowed to attach and then infected with adenovirus encoding either GFP (Ad-GFP) or Pfn1 (Ad-Pfn1) at a MOI of 500 for 24 h, before further incubation for an additional 48h in fresh culture media prior to use. […]
(§2) Cell migration and proliferation assays: For single-cell migration experiments, RVN, VEC and 786-0 cells were plated in 24-well plates coated with type I collagen (Millipore) overnight. […] For cell proliferation assay, one thousand RCC cells were plated per well in 96-well plates using quadruplicate determinations, with proliferation assessed by time-course analyses of DAPI-stained nuclei based on images acquired over 3 to 5 random fields per well.

choroidal explant = assay: Choroidal explant angiogenesis culture (ex vivo)
human dermal VEC = assay: Matrigel cord assay (in vitro angiogenesis); assay type: cell-based; conditions: for concentration able to inhibit angiogenesis: matrigel cord assay, human dermal VEC
Experimental: (§3) Note that contrasting its effect in cells, in biochemical assay Pfn1 inhibits actin polymerization by actin sequestering, and neither compound affects actin polymerization kinetics without the presence of Pfn1 (an important screening criterion).
Cell culture, transfection and viral transduction: Murine VHL-deleted variant of RENCA (referred to as RVN cells) cells were cultured in DMEM with 10% (v/v) FBS and 1% (v/v) antibiotics. Human VHL-negative 786-0 cells (source: ATCC) were cultured in RPMI-1640 media supplemented with 10% (v/v) FBS and antibiotics. HmVEC-1, a widely used immortalized human dermal microvascular EC line (ATCC; CRL-3243—referred to as VEC), were cultured in MCDB-131 (Life Technologies; Carlsbad, CA) growth medium supplemented with 10% (v/v) FBS, 1% (v/v) antibiotics, 10 ng/mL EGF, 1 μg/mL Hydrocortisone and 10 mM L-Glutamine. For adenovirus infection, cells were plated, allowed to attach and then infected with adenovirus encoding either GFP (Ad-GFP) or Pfn1 (Ad-Pfn1) at a MOI of 500 for 24 h, before further incubation for an additional 48h in fresh culture media prior to use. For knockdown studies, cells were transfected with 50 nM of either smart-pool control or Pfn1 siRNA for 72 h.

RVN cells [2] = assay: RVN cell proliferation assay; assay type: cell-based, murine; conditions: dose-dependent
Experimental: as §1, §2

RENCA cells = assay: Subcutaneous RENCA tumor model, daily intratumoral injection; assay type: in vivo, Balb/c mice
Excerpt: To determine whether C74 has any therapeutic benefit in vivo, we performed an exploratory study in which we established subcutaneous tumors by transplantation of RENCA cells in syngeneic Balb/c mice and injected either C74 or DMSO (vehicle) directly at the tumor cell inoculation site daily over a course of 19 days starting from day 1.
In vivo tumorigenesis: In 6 to 8 week old BALB/cJ mice, 1×10^6 RENCA cells were implanted subcutaneously in a 1:1 PBS:Matrigel (R&D Systems; Minneapolis, MN) mixture, supplemented with 81 μg C74 or DMSO control. Intratumoral injections were then given daily with either 320 μg C74 or control dissolved in saline, through day 19 post-implantation. On day 20, mice were sacrificed and harvested tumors were weighed. All animal experiments were performed according to the institutionally approved animal welfare guidelines.

[3] = test system: human renal cancer cell line; assay: Human renal cancer cell line proliferation; assay type: cell-based; conditions: dose dependent
[4] = test system: human renal cancer cell line; assay: Human renal cancer cell line migration; assay type: cell-based; conditions: dose dependent
[5] = test system: human retinal endothelial cells; assay: Angiogenic capability of human retinal endothelial cells in vitro; assay type: cell-based
choroidal NV = assay: Laser-induced choroidal NV (CNV) model, IVT injection; assay type: in vivo, mice; conditions: IVT C74 (50 μM)
Experimental: FIGS. 8A-8D. […] Laser-induced choroidal NV (CNV—an in vivo model that induces sub-retinal NV in response to laser injury in mice and is widely used to study NV aspects of wet AMD) in the settings of IVT injection of either DMSO (VEH) or C74 (50 μM) (panel C) and associated quantification (panel D).

Pfn1-actin interaction = assay: Pyrene-actin polymerization assay; assay type: biochemical
Excerpt: as §3

| Structure (SMILES) | range of concentrations reducing migration (RVN cells [1]) | choroidal neovascularization ex vivo (choroidal explant) | fold lower concentration than C2 to inhibit angiogenesis (human dermal VEC; C74 vs C2) | concentration able to inhibit angiogenesis (human dermal VEC) | range of concentrations reducing proliferation (RVN cells [2]) | average end-point tumor burden (tumor weight) (RENCA cells; daily injection at tumor site over 19 days, tumors weighed day 20, n=10 animals) | tumor angiogenesis (CD31-positive immune-reactive region of tumor histosections) (RENCA cells; daily intratumoral administration, relative to DMSO) | proliferation [3] | migration [4] | angiogenic capability [5] | choroidal neovascularization in vivo (choroidal NV) | reversal of Pfn1's inhibition of actin polymerization (Pfn1-actin interaction; actin plus Pfn1, fluorescence measures actin polymerization) | effect on actin polymerization without Pfn1 (Pfn1-actin interaction; compound alone, no Pfn1) |
| --- | --- | --- | --- | --- | --- | --- | --- | --- | --- | --- | --- | --- | --- |
| Cc1n[nH]c(O)c1C(c1ccc(Br)cc1)c1c(C)n[nH]c1O [C74, 4-[(4-bromophenyl)(5-hydroxy-3-methyl-1H-pyrazol-4-yl)methyl]-3-methyl-1H-pyrazol-5-ol] | 10 to 25 µM | inhibited | ~5 fold | 10 µM | 10 to 25 µM | 978.8 ± 366.0 mg | reduces tumor angiogenesis | reduced | reduced | inhibited | inhibited | can reverse Pfn1's inhibition of actin polymerization | does not significantly alter actin polymerization on its own |
| Oc1cccc(C2c3c(-c4ccccc4)nnc(O)c3Nc3nnnn32)c1 (centres unmarked) [C2, 8-(3-hydroxyphenyl)-10-phenyl-2,4,5,6,7,11,12-heptaazatricyclo[7.4.0.0^3,^7]trideca-1(13),3,5,9,11-pentaen-13-ol, reference compound] |  |  |  | 50 µM |  |  |  |  |  |  |  |  |  |
